In PubChem BioAssay AID276 (DTP/NCI, 2004):
Values joined by “and” are separate entries in the source; they are usually repeats but may differ in a detail not shown here. Equal values may be shown once. Toxic doses and inconclusive results are not listed.

Test system: B6C3F1 mice, Lewis lung carcinoma iv, survival T/C
Test: NCI In Vivo Anticancer Drug Screen. Data for tumor model Lewis Lung Carcinoma (intravenous) in B6C3F1 mice
Conditions: endpoint: median survival time, higher = longer survival
Procedure, shortened: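 Mice carrying transplanted tumors received test compound; survival in the treated group was divided by that of the vehicle-treated control group to give the T/C value.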

[1] = dose: 3.12 mg/kg/injection, schedule: Q01DX009 (ip), vehicle: saline
[2] = dose: 6.25 mg/kg/injection, schedule: Q01DX009 (ip), vehicle: saline
[3] = dose: 12.5 mg/kg/injection, schedule: Q01DX009 (ip), vehicle: saline
[4] = dose: 25.0 mg/kg/injection, schedule: Q01DX009 (ip), vehicle: saline
[5] = dose: 50.0 mg/kg/injection, schedule: Q01DX009 (ip), vehicle: saline
[6] = dose: 100.0 mg/kg/injection, schedule: Q01DX009 (ip), vehicle: saline
[7] = dose: 200.0 mg/kg/injection, schedule: Q01DX009 (ip), vehicle: saline
[8] = dose: 12.0 mg/kg/injection, schedule: Q01DX009 (ip), vehicle: saline with Tween-80
[9] = dose: 25.0 mg/kg/injection, schedule: Q01DX009 (ip), vehicle: saline with Tween-80
[10] = dose: 50.0 mg/kg/injection, schedule: Q01DX009 (ip), vehicle: saline with Tween-80
[11] = dose: 25.0 mg/kg/injection, schedule: Q01DX009 (ip), vehicle: Klucel (hydroxypropylcellulose) (HPC)
[12] = dose: 50.0 mg/kg/injection, schedule: Q01DX009 (ip), vehicle: Klucel (hydroxypropylcellulose) (HPC)
[13] = dose: 100.0 mg/kg/injection, schedule: Q01DX009 (ip), vehicle: Klucel (hydroxypropylcellulose) (HPC)
[14] = dose: 12.5 mg/kg/injection, schedule: Q01DX009 (ip), vehicle: Klucel (hydroxypropylcellulose) (HPC)

## ClCCCN1CCCCC1CCl (stereo not drawn)
dose: 0.78 mg/kg/injection, schedule: Q01DX009 (ip), vehicle: saline
  T/C: 101 % of control
dose: 1.56 mg/kg/injection, schedule: Q01DX009 (ip), vehicle: saline
  T/C: 108 % of control
[1]
  T/C: 98 % of control
[2]
  T/C: 101 % of control
[3]
  T/C: 121 % of control

## Cc1ccoc1
dose: 8.3 mg/kg/injection, schedule: Q03HX027 (ip), vehicle: saline with Tween-80
  T/C: 107 % of control
dose: 16.6 mg/kg/injection, schedule: Q03HX027 (ip), vehicle: saline with Tween-80
  T/C: 112 % of control
dose: 33.3 mg/kg/injection, schedule: Q03HX027 (ip), vehicle: saline with Tween-80
  T/C: 100 % of control
dose: 66.6 mg/kg/injection, schedule: Q03HX027 (ip), vehicle: saline with Tween-80
  T/C: 102 % of control

## O=C1c2c(O)ccc(O)c2C(=O)c2c(NCCNCCO)ccc(NCCNCCO)c21
dose: 0.12 mg/kg/injection, schedule: Q01DX009 (ip), vehicle: saline
  T/C: 94 % of control
dose: 0.12 mg/kg/injection, schedule: Q01DX009 (ip), vehicle: water
  T/C: 104 % of control
dose: 0.25 mg/kg/injection, schedule: Q01DX009 (ip), vehicle: saline
  T/C: 101 % of control
dose: 0.25 mg/kg/injection, schedule: Q01DX009 (ip), vehicle: water
  T/C: 106 % of control
dose: 0.5 mg/kg/injection, schedule: Q01DX009 (ip), vehicle: saline
  T/C: 100 % of control
dose: 0.5 mg/kg/injection, schedule: Q01DX009 (ip), vehicle: water
  T/C: 110 % of control
dose: 1.0 mg/kg/injection, schedule: Q01DX009 (ip), vehicle: saline
  T/C: 123 % of control
dose: 1.0 mg/kg/injection, schedule: Q01DX009 (ip), vehicle: water
  T/C: 120 % of control

## c1cc(-c2cc3ccc(C4=NCCN4)cc3[nH]2)ccc1C1=NCCN1
dose: 3.12 mg/kg/injection, schedule: Q01DX009 (ip), vehicle: suspension in saline
  T/C: 100 % of control
dose: 6.25 mg/kg/injection, schedule: Q01DX009 (ip), vehicle: suspension in saline
  T/C: 120 % of control
dose: 12.5 mg/kg/injection, schedule: Q01DX009 (ip), vehicle: suspension in saline
  T/C: 115 % of control
dose: 25.0 mg/kg/injection, schedule: Q01DX009 (ip), vehicle: suspension in saline
  T/C: 111 % of control

## N#C[C@H](OC1OC(COC2OC(CO)C(O)C(O)C2O)C(O)C(O)C1O)c1ccccc1 (stereo partly drawn)
[4]
  T/C: 111 % of control
[5]
  T/C: 95 % of control
[6]
  T/C: 95 % of control
[7]
  T/C: 92 % of control
dose: 400.0 mg/kg/injection, schedule: Q01DX009 (ip), vehicle: saline
  T/C: 97 % of control
dose: 800.0 mg/kg/injection, schedule: Q01DX009 (ip), vehicle: saline
  T/C: 101 % of control

## CCOC(=O)c1[nH]c2cccc3c2c1CC(Br)C3=O (stereo not drawn)
[8]
  T/C: 102 % of control
[9]
  T/C: 100 % of control
[10]
  T/C: 99 % of control

## O=NN(CCCl)C(=O)NCCO
dose: 0.78 mg/kg/injection, schedule: Q01DX009 (ip), vehicle: water
  T/C: 107 % of control
dose: 3.12 mg/kg/injection, schedule: Q01DX009 (ip), vehicle: water
  T/C: 184 % of control and 213 % of control and 215 % of control
dose: 6.25 mg/kg/injection, schedule: Q01DX009 (ip), vehicle: water
  T/C: 178 % of control and 312 % of control
dose: 12.5 mg/kg/injection, schedule: Q01DX009 (ip), vehicle: water
  T/C: 90 % of control

## CCOC(=O)Nc1cc2c(c(N)n1)N=C(c1ccc(Cl)cc1Cl)CN2
dose: 6.25 mg/kg/injection, schedule: Q01DX009 (ip), vehicle: saline with Tween-80
  T/C: 97 % of control
dose: 12.5 mg/kg/injection, schedule: Q01DX009 (ip), vehicle: saline with Tween-80
  T/C: 113 % of control

## Cc1cc(NCCCN(C)C)c2ccc3c(ccc4c(NCCCN(C)C)cc(C)nc43)c2n1
dose: 0.19 mg/kg/injection, schedule: Q01DX009 (ip), vehicle: saline with Tween-80
  T/C: 101 % of control
dose: 0.39 mg/kg/injection, schedule: Q01DX009 (ip), vehicle: saline with Tween-80
  T/C: 109 % of control
dose: 0.78 mg/kg/injection, schedule: Q01DX009 (ip), vehicle: saline with Tween-80
  T/C: 100 % of control
dose: 1.56 mg/kg/injection, schedule: Q01DX009 (ip), vehicle: saline with Tween-80
  T/C: 95 % of control
dose: 3.12 mg/kg/injection, schedule: Q01DX009 (ip), vehicle: saline with Tween-80
  T/C: 100 % of control
[1]
  T/C: 109 % of control

## O=c1[nH]c(=O)n(C2CC(O)C(CO)O2)cc1F (stereo not drawn)
dose: 147.0 mg/kg/injection, schedule: Q04DX003 (ip), vehicle: saline
  T/C: 102 % of control
dose: 210.0 mg/kg/injection, schedule: Q04DX003 (ip), vehicle: saline
  T/C: 118 % of control

## Nc1nc(F)nc2c1ncn2C1OC(COP(=O)(O)O)C(O)C1O (stereo not drawn)
[3]
  T/C: 105 % of control
[4]
  T/C: 102 % of control
[5]
  T/C: 103 % of control
[6]
  T/C: 114 % of control
[7]
  T/C: 87 % of control

## NC(=O)c1[nH]nc(C2OC(CO)C(O)C2O)c1O (stereo not drawn)
dose: 0.31 mg/kg/injection, schedule: Q01DX009 (ip), vehicle: saline
  T/C: 91 % of control and 105 % of control
dose: 0.62 mg/kg/injection, schedule: Q01DX009 (ip), vehicle: saline
  T/C: 98 % of control and 101 % of control
dose: 1.25 mg/kg/injection, schedule: Q01DX009 (ip), vehicle: saline
  T/C: 120 % of control and 122 % of control
dose: 2.5 mg/kg/injection, schedule: Q01DX009 (ip), vehicle: saline
  T/C: 122 % of control

## Clc1ccc(C2SC=Cc3ccccc32)cc1 (stereo not drawn)
[11]
  T/C: 115 % of control
[12]
  T/C: 114 % of control
[13]
  T/C: 110 % of control
dose: 200.0 mg/kg/injection, schedule: Q01DX009 (ip), vehicle: Klucel (hydroxypropylcellulose) (HPC)
  T/C: 107 % of control
dose: 400.0 mg/kg/injection, schedule: Q01DX009 (ip), vehicle: Klucel (hydroxypropylcellulose) (HPC)
  T/C: 105 % of control

## O=c1oc2c(O)c(O)cc3c(=O)oc4c(O)c(O)cc1c4c23
[14]
  T/C: 105 % of control
[11]
  T/C: 105 % of control
[12]
  T/C: 106 % of control
[13]
  T/C: 110 % of control

## O=C(O)c1cc(Cc2ccc(O)c(C(=O)O)c2)ccc1O (tested in a mixture with another compound)
dose: 6.25 mg/kg/injection, schedule: Q01DX009 (ip), vehicle: Klucel (hydroxypropylcellulose) (HPC)
  T/C: 107 % of control
[14]
  T/C: 97 % of control
[11]
  T/C: 101 % of control
[12]
  T/C: 97 % of control
[13]
  T/C: 95 % of control

## NC(=S)N/N=C\c1ncccc1OCc1cccc(N)c1
dose: 12.5 mg/kg/injection, schedule: Q01DX009 (ip), vehicle: distilled water + Tween-80
  T/C: 103 % of control
dose: 25.0 mg/kg/injection, schedule: Q01DX009 (ip), vehicle: distilled water + Tween-80
  T/C: 109 % of control
dose: 50.0 mg/kg/injection, schedule: Q01DX009 (ip), vehicle: distilled water + Tween-80
  T/C: 109 % of control
dose: 100.0 mg/kg/injection, schedule: Q01DX009 (ip), vehicle: distilled water + Tween-80
  T/C: 102 % of control
dose: 200.0 mg/kg/injection, schedule: Q01DX009 (ip), vehicle: distilled water + Tween-80
  T/C: 121 % of control

## CC(=O)N(C)c1ccc(Nc2cc(C)[nH]c3ccc4ncnc4c23)cc1
[2]
  T/C: 100 % of control
[3]
  T/C: 100 % of control
[4]
  T/C: 105 % of control
[5]
  T/C: 102 % of control

## CNC(=O)c1cccc2c(Nc3ccc(NS(C)(=O)=O)cc3OC)c3cccc(C)c3nc12
dose: 3.0 mg/kg/injection, schedule: Q04DX003 (ip), vehicle: saline + alcohol
  T/C: 114 % of control
dose: 3.12 mg/kg/injection, schedule: Q04DX003 (ip), vehicle: saline + alcohol
  T/C: 118 % of control
dose: 6.0 mg/kg/injection, schedule: Q04DX003 (ip), vehicle: saline + alcohol
  T/C: 156 % of control
dose: 12.5 mg/kg/injection, schedule: Q04DX003 (ip), vehicle: saline + alcohol
  T/C: 181 % of control and 309 % of control (2×)
dose: 12.5 mg/kg/injection, schedule: Q04DX003 (ip), vehicle: water
  T/C: 178 % of control
dose: 25.0 mg/kg/injection, schedule: Q04DX003 (ip), vehicle: water
  T/C: 260 % of control

## CC(Cc1ccc(O)c(O)c1)C(C)Cc1ccc(O)c(O)c1 (stereo not drawn)
[8]
  T/C: 100 % of control
[9]
  T/C: 113 % of control
[10]
  T/C: 103 % of control
dose: 100.0 mg/kg/injection, schedule: Q01DX009 (ip), vehicle: saline with Tween-80
  T/C: 94 % of control
dose: 200.0 mg/kg/injection, schedule: Q01DX009 (ip), vehicle: saline with Tween-80
  T/C: 104 % of control
dose: 400.0 mg/kg/injection, schedule: Q01DX009 (ip), vehicle: saline with Tween-80
  T/C: 100 % of control
